Where a name gives a salt, the structure may show the parent alone.
System: progranulin (PGRN)
Assay: progranulin induction cellular assay (PGRN assay), ELISA-based readout
Conditions: PGRN assay as described: mouse primary microglia, primary cortical neurons and BV-2 cell lines; secreted mouse PGRN in medium by ELISA; cell type for Table B not specified
Method: Cellular Assays: To measure the efficacy of compounds, a progranulin induction cellular assay in mouse primary microglia (pMG), primary cortical neurons, and BV-2 cell lines is used. BV-2 cells are split the day before plating into a 96 well plate format at approximately 80%. Cells should be plated the day before and allowed for 1 hour attachment period and for 16 hour incubation. Levels of progranulin secreted into the cell culture medium or retained in the cell lysate can be quantified using an ELISA-based readout and measurement of secreted mouse PGRN in the medium was assessed by the methodology published by Ghidoni et al. 2012. Standard ELISA kits to measure PGRN are available from vendors such as Adipogen, R&D, and Biovendor.
Table B below presents the results of a PGRN assay as described above.

EC50 [nM] | Structure (SMILES)
208 | N[C@H]1C[C@H](CC(=O)N2CCc3ccccc3[C@@H]2c2ccc(F)cc2)C1 [Compound 4122]
1010 | N[C@@H]1CC[C@@H]1COC(=O)N1CCc2ccccc2[C@@H]1c1ccc(F)cc1 [Compound 4132, ((1S,2R)-2-aminocyclobutyl)methyl (S)-1-(4-fluorophenyl)-3,4-dihydroisoquinoline-2(1H)-carboxylate]
1210 | N[C@@H]1CC[C@H]1OC(=O)N1CCc2ccccc2[C@@H]1c1ccc(F)cc1 (single isomer, unassigned) [Compound 4039, hydrochloride]
112 | NC[C@]1(O)C[C@H](C(=O)N2CCc3ccccc3[C@@H]2c2ccc(F)cc2)C1 [Compound 4154, (trans-3-(aminomethyl)-3-hydroxycyclobutyl)((S)-1-(4-fluorophenyl)-3,4-dihydroisoquinolin-2(1H)-yl)methanone]
571 | CN(C)[C@H]1C[C@@H](CC(=O)N2CCc3ccccc3[C@@H]2c2ccc(F)cc2)C1 [Compound 4126]
900 | CNC12CC(CCC(=O)N3CCc4ccccc4C3c3ccc(F)cc3)(C1)C2 [Compound 4058, (S)-1-(1-(4-fluorophenyl)-3,4-dihydroisoquinolin-2(1H)-yl)-3-(3-(methylamino)bicyclo[1.1.1]pentan-1-yl)propan-1-one hydrochloride]
120 | C[C@]1(NC(=O)N2CCc3ccccc3[C@@H]2c2ccc(F)cc2)C[C@@H](N)C1 [Compound 4054, (S)—N-((cis)-3-amino-1-methylcyclobutyl)-1-(4-fluorophenyl)-3,4-dihydroisoquinoline-2(1H)-carboxamide]
1440 | NC12CC(CC(=O)N3CCc4ccccc4C3c3ccc(F)cc3)(C1)C2 [Compound 4056, (S)-2-(3-aminobicyclo[1.1.1]pentan-1-yl)-1-(1-(4-fluorophenyl)-3,4-dihydroisoquinolin-2(1H)-yl)ethan-1-one]
84 | N[C@H]1CC[C@@H](C(=O)N2CCc3ccccc3[C@@H]2c2ccc(F)cc2)CC1 [Compound 4143, cis-(S)-(4-aminocyclohexyl)(1-(4-fluorophenyl)-3,4-dihydroisoquinolin-2(1H)-yl)methanone]
2320 | N[C@H]1C[C@@H](CNC(=O)N2CCc3ccccc3[C@@H]2c2ccc(F)cc2)C1 [Compound 4028, Cis-(S)—N-((3-aminocyclobutyl)methyl)-1-(4-fluorophenyl)-3,4-dihydroisoquinoline-2(1H)-carboxamide]
> 10000 | C#CCNC12CC(NC(=O)N3CCc4ccccc4[C@@H]3c3ccc(F)cc3)(C1)C2 [Compound 4005, (S)-1-(4-fluorophenyl)-N-(3-(prop-2-yn-1-ylamino)bicyclo[1.1.1]pentan-1-yl)-3,4-dihydroisoquinoline-2(1H)-carboxamide 2,2,2-trifluoroacetate]
310 | C[C@]1(N)C[C@@H](NC(=O)N2CCc3ccccc3[C@@H]2c2ccc(F)cc2)C1 [Compound 4041, (S)—N-(cis-3-amino-3-methylcyclobutyl)-1-(4-fluorophenyl)-3,4-dihydroisoquinoline-2(1H)-carboxamide hydrochloride]
864 | N[C@H]1CC[C@H]1COC(=O)N1CCc2ccccc2[C@@H]1c1ccc(F)cc1 [Compound 4133, ((1R,2S)-2-aminocyclobutyl)methyl (S)-1-(4-fluorophenyl)-3,4-dihydroisoquinoline-2(1H)-carboxylate]
> 10000 | O=C(OC12CC(N3CCOCC3)(C1)C2)N1CCc2ccccc2[C@@H]1c1ccc(F)cc1 [Compound 4049, 3-Morpholinobicyclo[1.1.1]pentan-1-yl (S)-1-(4-fluorophenyl)-3,4-dihydroisoquinoline-2(1H)-carboxylate hydrochloride]
160 | CN(C(=O)N1CCc2ccccc2[C@@H]1c1ccc(F)cc1)[C@H]1C[C@H](N)C1 [Compound 4055, (S)—N-((trans)-3-aminocyclobutyl)-1-(4-fluorophenyl)-N-methyl-3,4-dihydroisoquinoline-2(1H)-carboxamide]
1690 | N[C@@H]1CC[C@@H]1OC(=O)N1CCc2ccccc2[C@@H]1c1ccc(F)cc1 (single isomer, unassigned) [Compound 4038]
> 10000 | O=C(OC12CC(N3CCCC3=O)(C1)C2)N1CCc2ccccc2[C@@H]1c1ccc(F)cc1 [Compound 4025, 3-(2-Oxopyrrolidin-1-yl)bicyclo[1.1.1]pentan-1-yl (S)-1-(4-fluorophenyl)-3,4-dihydroisoquinoline-2(1H)-carboxylate]
> 10000 | CC(C)(NC(=O)N1CCc2ccccc2C1c1ccc(F)cc1)C12CC(N)(C1)C2 [Compound 4050, (S)—N-(2-(3-aminobicyclo[1.1.1]pentan-1-yl)propan-2-yl)-1-(4-fluorophenyl)-3,4-dihydroisoquinoline-2(1H)-carboxamide hydrochloride]
59 | C[C@]1(N)C[C@H](NC(=O)N2CCc3ccccc3[C@@H]2c2ccc(F)cc2)C1 [Compound 4042, (S)—N-(trans-3-amino-3-methylcyclobutyl)-1-(4-fluorophenyl)-3,4-dihydroisoquinoline-2(1H)-carboxamide hydrochloride]

EC50 [nM] | Structure (SMILES)
280 | CN(C)[C@H]1C[C@H](CC(=O)N2CCc3ccccc3[C@@H]2c2ccc(F)cc2)C1 [Compound 4125]
600 | CN[C@H]1C[C@@H](NC(=O)N2CCc3ccccc3[C@@H]2c2ccc(F)cc2)C1 [Compound 4045, (S)-1-(4-fluorophenyl)-N-(cis-3-(methylamino)cyclobutyl)-3,4-dihydroisoquinoline-2(1H)-carboxamide hydrochloride]
334 | NC1CCC1COC(=O)N1CCc2ccccc2[C@@H]1c1ccc(F)cc1 (stereo in doubt) [Compound 4062, ((1R,2R)-2-aminocyclobutyl)methyl (S)-1-(4-fluorophenyl)-3,4-dihydroisoquinoline-2(1H)-carboxylate]
370 | N[C@H]1C[C@@H](NC(=O)N2CCc3ccccc3[C@@H]2c2ccc(F)cc2)C1 [Compound 4034, (S)—N-(cis-3-aminocyclobutyl)-1-(4-fluorophenyl)-3,4-dihydroisoquinoline-2(1H)-carboxamide]
> 10000 | O=C(OC12CC(NCC(F)(F)F)(C1)C2)N1CCc2ccccc2[C@@H]1c1ccc(F)cc1 [Compound 4014, 3-((2,2,2-trifluoroethyl)amino)bicyclo[1.1.1]pentan-1-yl (S)-1-(4-fluorophenyl)-3,4-dihydroisoquinoline-2(1H)-carboxylate]
> 10000 | CNC12CC(N(C)C(=O)N3CCc4ccccc4[C@@H]3c3ccc(F)cc3)(C1)C2 [Compound 4009, (S)-1-(4-fluorophenyl)-N-methyl-N-(3-(methylamino)bicyclo[1.1.1]pentan-1-yl)-3,4-dihydroisoquinoline-2(1H)-carboxamide]
1290 | N[C@H]1CC[C@@H]1COC(=O)N1CCc2ccccc2[C@@H]1c1ccc(F)cc1 [Compound 4134, ((1S,2S)-2-aminocyclobutyl)methyl (S)-1-(4-fluorophenyl)-3,4-dihydroisoquinoline-2(1H)-carboxylate]
> 10000 | CC(=O)NC12CC(OC(=O)N3CCc4ccccc4[C@@H]3c3ccc(F)cc3)(C1)C2 [Compound 4015, 3-Acetamidobicyclo[1.1.1]pentan-1-yl (S)-1-(4-fluorophenyl)-3,4-dihydroisoquinoline-2(1H)-carboxylate]
359 | N[C@@H]1CC[C@@H]1CNC(=O)N1CCc2ccccc2[C@@H]1c1ccc(F)cc1 [Compound 4131]
> 10000 | N[C@H]1CC[C@H]1OC(=O)N1CCc2ccccc2[C@@H]1c1ccc(F)cc1 (single isomer, unassigned) [Compound 4037]
920 | N[C@H]1C[C@@H](COC(=O)N2CCc3ccccc3[C@@H]2c2ccc(F)cc2)C1 [Compound 4046, (Cis-3-aminocyclobutyl)methyl (S)-1-(4-fluorophenyl)-3,4-dihydroisoquinoline-2(1H)-carboxylate]
> 2100 | NC[C@@H]1CC[C@H]1OC(=O)N1CCc2ccccc2[C@@H]1c1ccc(F)cc1 [Compound 4123]
810 | N[C@H]1C[C@@H](NC(=O)N2CCc3ccccc3[C@@H]2c2ccc(F)cc2)CC(F)(F)C1 (single isomer, unassigned) [Compound 4142]
91 | NC12CC(NC(=O)N3CCc4ccccc4C3c3ccc(F)cc3F)(C1)C2 (single isomer, unassigned) [Compound 4137, N-(3-aminobicyclo[1.1.1]pentan-1-yl)-1-(2,4-difluorophenyl)-3,4-dihydroisoquinoline-2(1H)-carboxamide]
2370 | O=C(NC12CC(NC(=O)C(F)(F)F)(C1)C2)N1CCc2ccccc2[C@@H]1c1ccc(F)cc1 [Compound 4019]
850 | CNC12CC(OC(=O)N3CCc4ccccc4[C@@H]3c3ccc(F)cc3)(C1)C2 [Compound 4026, 3-(Methylamino)bicyclo[1.1.1]pentan-1-yl (S)-1-(4-fluorophenyl)-3,4-dihydroisoquinoline-2(1H)-carboxylate hydrochloride]
225 | CNC12CC(NC(=O)N3CCc4ccccc4[C@@H]3c3ccc(F)cc3)(C1)C2 [Compound 4004, (S)-1-(4-fluorophenyl)-N-(3-(methylamino)bicyclo[1.1.1]pentan-1-yl)-3,4-dihydroisoquinoline-2(1H)-carboxamide]
191 | O=C(O[C@H]1C[C@@H](NCCO)C1)N1CCc2ccccc2[C@@H]1c1ccc(F)cc1 [Compound 4145, cis-3-((2-hydroxyethyl)amino)cyclobutyl (S)-1-(4-fluorophenyl)-3,4-dihydroisoquinoline-2(1H)-carboxylate]

Source: patent US20230115534A1 (ARKUDA THERAPEUTICS, priority 2019, published 2023)
